The values that follow come from patent US8728472B2, “Antibodies that bind selectively to P25 and uses therefor” (The Board of Regents of the University of Texas System, priority 2009, dated 2014).

In one data set the target is T1, D1 dopamine receptor (Mus musculus, UniProt Q61616).
T1 construct: from tissue; host or cells: acute mouse striatal slices
Kind of data set: D1 agonist-induced PKA-dependent phosphorylation in striatal slices. In kind it is cell-based.

The next data set relates to calpain. Particulars: preincubation 20 μM, 1 h, striatal slices.
In data set [1] the test system is coronal mouse brain slices. Kind of data set: TTC viability staining of coronal brain slices subjected to OGD. In kind it is cell-based. The conditions noted are these: for neuroprotective effect against OGD-induced neuronal death / viability (TTC staining) after 60 min OGD: incubation 1 h prior to and during OGD; for viability (TTC staining) after 60 min OGD: 60 min without oxygen and glucose. The procedure:
(§1) Slices were treated with SKF81297 (1 μM, 10 min), calpain inhibitor 3, calpeptin (20 μM, 1 h), Ca^2+-free Krebs (1 h), and Indo A or B (1 h) at indicated concentrations. See Methods.
(§2) Abs to p35, DARPP-32 (Nishi et al., 1997), GFAP, and p25 were used to stain rat coronal cryosections (20 μm) from control and stroked hemispheres. […] See Methods for further details.
Having established this pharmacological approach, the effect of OGD on neuronal viability was next quantitatively assessed by 2, 3, 5-triphenyltetrazolium chloride (TTC) staining (Bederson et al., 1986) (FIGS. 8E and 8F). TTC staining was readily observed in coronal mouse brain slices oxygenated in Kreb's buffer for 1 h. OGD induced time-dependent neuronal death with TTC staining reduced to 60.8±2.1 and 0.6±7.9% of control levels by exposure to ischemic conditions for 30 and 60 min, respectively.

The target of another data set is T2, Cdk5 (Mus musculus, UniProt P49615).
T2 construct: from tissue; host or cells: acute striatal slices
Description: Cdk5 inhibition in striatal slices by blotting phospho-Thr75 DARPP-32. In kind it is cell-based. As for the experimental part: as §1, §2
To assess the deleterious effects of aberrantly active Cdk5/p25, the selective and potent Cdk5 inhibitor, indolinone A (Gillardon et al., 2005) (Indo A) was employed. First, its ability to inhibit Cdk5 in striatal slices was assessed by treating striatal slices with various concentrations (1-10 μM) of Indo A and blotting the lysates for the defined Cdk5 site, phospho-Thr75 DARPP-32 (Bibb et al., 1999). […] In contrast the congener Indolinone B, which is limited in specificity to Cdk4 (Weishaupt et al., 2003), had no effect on Cdk5-dependent phosphorylation of DARPP-32.

Data set [2] concerns striatal projecting spiny neurons. Kind of data set: Electrophysiological recordings (EPSP, membrane potential, field potential) in corticostriatal slices under OGD. In kind it is cell-based. Particulars: pre-treatment. The source says: Electrophysiological recordings of FPs and single unit activity were taken from slices under physiological and OGD conditions using described methodology (Calabresi et al., 1998; Picconi et al., 2003; Costa et al., 2006).
To better understand the physiological effects of shorter periods of ischemia, a neurophysiological approach was utilized. Sharp microelectrode intracellular recordings were obtained from striatal projecting spiny neurons identified according to their electrophysiological characteristics (Calabresi et al., 1998). In these neurons, a very brief period (2-3 min) of OGD induced loss of membrane potential (FIGS. 10A-B) and a transient suppression of the excitatory post-synaptic potential (EPSP) followed by a long-term increase in the EPSP amplitude in comparison to the pre-ischemic period (139.7±10.3%, n=5, p<0.05, FIG. 10C). This long-term increase of the glutamatergic transmission at corticostriatal synapses, called post-ischemic LTP (i-LTP), represents a pathological form of synaptic plasticity occurring after brain ischemia (Calabresi et al., 2003; Calabresi et al., 1998; Calabresi et al., 2002). […] Extracellular field potential (FP) recordings were also obtained from corticostriatal slices. In control conditions, 10 min of OGD caused an irreversible loss of FP (FIGS. 10E-F).

Residues, ends and D or L forms follow the SMILES beside them. *: point of attachment. Cbz = O=C(OCc1ccccc1)*

T1 sequence (Q61616 whole entry): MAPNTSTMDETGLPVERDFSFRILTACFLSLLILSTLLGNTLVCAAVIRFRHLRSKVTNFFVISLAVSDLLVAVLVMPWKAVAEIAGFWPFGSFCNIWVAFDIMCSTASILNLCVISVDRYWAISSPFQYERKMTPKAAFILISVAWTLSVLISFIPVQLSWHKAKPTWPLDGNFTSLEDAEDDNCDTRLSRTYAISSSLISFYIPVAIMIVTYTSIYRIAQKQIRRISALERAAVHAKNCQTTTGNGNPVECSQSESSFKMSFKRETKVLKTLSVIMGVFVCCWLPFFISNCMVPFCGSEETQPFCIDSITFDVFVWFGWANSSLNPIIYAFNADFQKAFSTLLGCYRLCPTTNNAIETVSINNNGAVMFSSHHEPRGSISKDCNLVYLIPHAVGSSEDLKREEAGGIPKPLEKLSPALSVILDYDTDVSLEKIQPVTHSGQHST
T2 sequence (P49615 whole entry): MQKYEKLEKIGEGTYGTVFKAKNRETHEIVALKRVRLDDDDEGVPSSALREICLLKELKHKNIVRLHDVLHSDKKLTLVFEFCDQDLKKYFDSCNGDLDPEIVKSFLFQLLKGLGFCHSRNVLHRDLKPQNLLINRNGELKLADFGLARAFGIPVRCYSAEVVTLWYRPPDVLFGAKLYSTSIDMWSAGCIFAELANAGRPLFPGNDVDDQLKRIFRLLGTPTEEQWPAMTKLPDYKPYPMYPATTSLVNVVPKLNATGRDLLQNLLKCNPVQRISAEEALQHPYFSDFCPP
T2 sequence (P61809 2-307 partner limits assumed): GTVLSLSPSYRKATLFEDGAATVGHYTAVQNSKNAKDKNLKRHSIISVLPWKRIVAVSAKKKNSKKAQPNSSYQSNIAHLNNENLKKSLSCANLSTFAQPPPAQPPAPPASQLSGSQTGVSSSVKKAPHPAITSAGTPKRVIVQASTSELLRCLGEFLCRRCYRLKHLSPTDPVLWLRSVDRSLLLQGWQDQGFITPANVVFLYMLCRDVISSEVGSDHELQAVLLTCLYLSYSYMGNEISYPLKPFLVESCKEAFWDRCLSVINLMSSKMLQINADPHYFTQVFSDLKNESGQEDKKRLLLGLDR
Description for D1 dopamine receptor: Homogenates were prepared from rapidly dissected tissue or striatal slices using standard methodology (Nishi et al., 1997).
Description for calpain: Acutely prepared coronal slices were prepared as described (Nishi et al., 1997). For OGD, slices were switched from Kreb's buffer bubbled in 95% O2/5% CO2 to 100% N2 and glucose was replaced by 10 mM sucrose for indicated periods (Sahin et al., 2008; Sahin et al., 2007). […] Homogenates were prepared from rapidly dissected tissue or striatal slices using standard methodology (Nishi et al., 1997). […] For immunostaining of cultured cells, rat primary striatal neuron cultures were prepared, subjected to control or OGD conditions, fixed and stained as described (Meyer et al., 2008).

For `Oc1cc2c(c(Cl)c1O)CCNCC2c1ccccc1` (centres unmarked) [SKF81297], on D1 dopamine receptor (oxygenated slices, 1 μM, 5 min), the “increase in phospho-Ser845 GluR1” value stood at 2.0±0.1 fold and the “increase in phospho-Thr34 DARPP-32” value is reported as 3.6±0.3 fold.
With `CC(C)[C@H](NC(=O)OCc1ccccc1)C(=O)N[C@H](C=O)Cc1ccccc1` [calpain inhibitor 3] (Cbz-Val-Phe-aldehyde), the “OGD-dependent p25 generation” value in the data set on calpain is “prevented p25 generation”.
For the compound `CCCC[C@@H](C=O)NC(=O)[C@H](CC(C)C)NC(=O)OCc1ccccc1` [calpeptin], in data set [1], the “TTC staining intensity relative to 60 min OGD without inhibitor” value was 111.3±6.0 fold, the “neuroprotective effect against OGD-induced neuronal death” value (shortened to “neuroprotective effect”) is on record as “significantly blocked neuronal death” and the “viability (TTC staining) after 60 min OGD” value is 69.6±6.6 % of control levels. Also, in the data set on calpain, the “OGD-dependent p25 generation” value was “prevented p25 generation”.
For Indolinone B [Indo B], the “neuroprotective effect” value in data set [1] was “no such neuroprotective effect”. Moreover, the “effect on Cdk5-dependent phosphorylation of DARPP-32” value at Cdk5 was “had no effect”.
With indolinone A [Indo A], the “induction of i-LTP at corticostriatal synapses” value in data set [2] (3 min OGD, n=5) is on record as “completely blocked the induction of i-LTP”. Further, in data set [2] (10 min OGD), the “loss of field potential (FP) induced by ischemia” value was “significantly reduced the loss of FP”. Further, in data set [1], the “TTC staining intensity relative to 60 min OGD without inhibitor” value worked out at 95.5±9.6 fold, the “neuroprotective effect” value was “significantly blocked neuronal death” and the “viability (TTC staining) after 60 min OGD” value was 59.7±6.0 % of control levels. The “phospho-Thr75 DARPP-32, reduction to % of basal levels” value on Cdk5 (5 μM) is 26±8 % of basal levels. The compound further had an IC50 at Cdk5 (1-10 μM, 1 h) of 290 nM. Further, on D1 dopamine receptor (preincubation with Indo A 10 μM, 1 h, 10 min OGD/10 min reperfusion), the “increase in phospho-Ser845 in response to SKF81297 after 10 min of ischemia” value came out at 4.7±1.2 fold.

By IC50 is commonly meant the concentration that gives 50% inhibition. A high value points to weaker potency in that assay.
